Structures are written as SMILES. Values joined by “and” are separate entries in the source; they are usually repeats but may differ in a detail not shown here. Equal entries are not always repeated. Where two headings read alike, the source gives them in different places.

Results on one compound are retold here after patent US8409560B2, “Solid dispersion formulations and methods of use thereof” (Zalicus Pharmaceuticals Ltd., priority 2011, dated 2013).

A short description of data set [1]: Hygroscopicity of compound 1 free base (previously determined). The format is physicochemical. The conditions noted are these: at 70% relative humidity (RH). An excerpt: Compound 1 has the following previously determined characteristics:
(vii) hygroscopicity (for free base): 0.09% at 70% relative humidity (RH);

A short description of data set [2]: Supersaturation dissolution kinetics of hot melt extrusion formulations. The class given is physicochemical. The note with it: processing conditions na. Here is the method:
Supersaturation dissolution kinetics provides valuable information regarding the performance of different matrix polymers in combination with an active agent. In particular, such studies could provide insight on which formulations could provide enhanced bioavailability. Accordingly, dissolution studies were conducted on the following three HME formulations: Kollidon® VA 64 (Copovidone), HPMCAS-MF (Hypromellose Acetate Succinate), and Kollidon® K30 (Povidone, PVP).
Briefly, the target concentration of the dissolution sample solution was 1.1 mg/mL, or ten times the estimated sink dissolution sample solution concentration produced by a 100 mg dose when dissolved in 900 mL of dissolution media. Triplicate preparations of about 10 mg of extrudate (2 mg of compound 1 in the three HME formulations) were transferred into separate micro-centrifuge tubes. About 1.8 mL of dissolution media was preheated to 37° C. and added to each tube, where the tube was then placed into an incubator shaker at 37° C. and 250 rpm. Samples were centrifuged at 13,000 rpm for one minute, and 25 μL aliquots of the clear supernatant were transferred into HPLC vials and diluted with 1.0 mL of HPLC mobile phase (30%/70% of pH 6.6 buffer/acetonitrile) at 10′ (minutes), 20′, 40′, 1 hr (hour), 1.5 hrs, 2 hrs, 4 hrs, and 24 hrs. An isocratic HPLC method was applied for quantitation against a five point calibration curve in the range of 5.5-220 μg/mL (C18, 5 μm, 4.6×150 mm column, and UV 216 nm detection). The HPLC sample solution target concentration was 27.1 μg/mL.

Data set [3] in a line: Phase I (Group 2) study of HME or SDD formulations in healthy human subjects, fed (standard meal). The class given is in vivo. The note with it: 225 mg HME or SDD oral; for half-life: human, plasma, po, 225 mg. Here is the method:
Bioavailability of the ion channel modulator compound 1 was studied in healthy human subjects using SDD and HME formulations, with subjects in a fed state. The effect the SDD or HME formulation on bioavailability following a single oral dose under fed conditions was thereby evaluated and compared. Safety and tolerability of compound 1 was also evaluated.
This study utilized a single-center, single-dose open-label, 2-group, 2-period randomized crossover design to determine bioavailability following treatment with the SDD or HME formulation under fed conditions. A total of 16 subjects were selected by the criteria described in Example 10.
Subjects were treated with an oral dose of 225 mg HME (as described in Example 8, Table 14) or 225 mg SDD (as described in Example 7) with approximately 8 fluid ounces of water in the fed (standard meal) state. Subjects were randomized between HME and SDD formulations in equal numbers during period 1 of the trial, and, following a washout period, assigned to the opposite formulation during period 2. The fed condition is defined as the state of a subject following an overnight fast of at least 10 hours with a test meal provided 30 minutes prior to administration of the study drug. The subject must completely consume their respective meal before being dosed. Meals were standardized and standard meals were served according to a pre-determined schedule throughout the inpatient portion of the study. A standardized meal derived approximately 35% of total caloric content of the meal from fat, approximately 15-20% from protein, and approximately 45-50% from carbohydrates, with a total caloric content of approximately 400-450 calories. An example test meal would have included ⅝ ounces Cheerios®, 1 egg, 1 strip of bacon, 1 slice of toast with margarine, 6 ounces of low fat milk, and 4 ounces of orange juice. The time of food intake before and after study drug administration was documented. Water was allowed as desired except for one hour before and after drug administration. Outside of these restrictions, subjects in both fed and fasted conditions were provided fluid intake according to the subject's individual needs, with documentation. HME and SDD groups were dosed and evaluated simultaneously.
Treatments of 225 mg HME or SDD were administered on day 1 of period 1 of the trial and subjects were admitted to the clinical research unit (CRU) for four days of inpatient evaluation. Subjects were discharged from the CRU upon completion of assessments on day 4, and reported to the CRU for additional pharmacokinetic blood sampling and safety assessment on days 5 and 6, completing period 1. There was a 7-day washout between the first and second period drug administrations. In the second period, subjects were treated with an oral dose of 225 mg HME or 225 mg SDD in the fed (standard meal) state. The treatment was administered on day 1 of period 2 of the trial and subjects were admitted to the clinical research unit (CRU). Subjects were discharged from the CRU upon completion of assessments on day 4, and reported to the CRU for additional and followup pharmacokinetic blood sampling and safety assessment on days 5, 6, 8, 15, 22, 29, and 36 of period 2.
Pharmacokinetic assessments conducted during each treatment period were performed by the collection of venous blood samples via indwelling catheter or direct venipuncture. The plasma concentrations of the drug was determined for each sample. Concentration of the drug was determined using a validated liquid chromatography coupled with tandem mass (LC/MS/MS) assay, with a lower limit of quantitation (LLOQ) of 0.1 ng/mL. Descriptive statistics were calculated for these parameters and tabulated by formulation and period. Safety of the trial subjects was assessed by the following endpoints: adverse events, vital signs, ECG parameters, laboratory parameters, medical history, and physical examination. […]

In data set [1], `O=C(CC(c1ccccc1)c1ccccc1)N1CCN(C(c2ccccc2)c2ccccc2)CC1` [Compound 1, 1-(4-benzhydrylpiperazin-1-yl)-3,3-diphenylpropan-1-one] displayed a hygroscopicity of 0.09%. Further, the “AUC0-4 hr (dissolution)” value in data set [2] is 8000 ng·h/mL. The “Tmax (dissolution)” value in data set [2] stood at 2 h. For the same compound, in data set [2] (37° C.), the “Cmax (dissolution)” value turned out to be 2645 ng/mL. Further, the “Half-Life Period 1” value in data set [3] (period 1, individual subjects) is 617 h and 79 h and 75 h and 270 h and 73 h and 115 h and 112 h and 92 h and 94 h and 163 h and 96 h and 114 h and 72 h and 105 h and 77 h. Besides, the “Half-Life Period 2” value in data set [3] (period 2, individual subjects) is 104 h and 171 h and 176 h and 417 h and 82 h and 106 h and 149 h and 155 h and 137 h and 400 h and 193 h and 98 h and 71 h and 116 h and 114 h. The “Half-Life Ratio” value is 73% in data set [3] (ratio period 1 to period 2, Mean); 76% and 44% and 43% and 65% and 89% and 108% and 75% and 59% and 69% and 41% and 50% and 116% and 101% and 91% and 68% in data set [3] (ratio period 1 to period 2, individual subjects). In addition, the half-life (usually the time needed for the level to fall by half in the phase considered) in data set [3] (period 1, Mean, read-out: Half-Life Period 1 (converted)) was 139 h; in data set [3] (period 2, Mean, read-out: Half-Life Period 2 (converted)) it was 166 h.
